Values after ≈ are worked out from the molar mass of the structure shown.
What was measured:
Escherichia coli = assay: Antimicrobial activity against Escherichia coli; format: functional
[1] = biological target: T1, Cell division protein FtsZ (Escherichia coli K-12) (UniProt P0A9A6); assay: Inhibition of Escherichia coli FtsZ assessed as reduction in GTPase activity by malachite green assay
T1 sequence (whole entry): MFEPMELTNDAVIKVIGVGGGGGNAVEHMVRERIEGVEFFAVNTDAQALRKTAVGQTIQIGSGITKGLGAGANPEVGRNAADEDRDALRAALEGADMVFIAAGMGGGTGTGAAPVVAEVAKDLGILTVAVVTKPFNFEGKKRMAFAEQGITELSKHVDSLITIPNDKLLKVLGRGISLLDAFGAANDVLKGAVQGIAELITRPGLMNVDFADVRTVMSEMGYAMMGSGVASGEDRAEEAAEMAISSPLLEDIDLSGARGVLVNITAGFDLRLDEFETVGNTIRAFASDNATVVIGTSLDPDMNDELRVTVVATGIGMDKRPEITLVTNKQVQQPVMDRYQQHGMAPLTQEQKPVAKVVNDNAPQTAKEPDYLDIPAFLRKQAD

[2] = biological target: T2, Cell division protein FtsZ (Escherichia coli K-12, UniProt P0A9A6); assay: Displacement of bis-ANS from Escherichia coli FtsZ
T2 sequence (P0A9A6 whole entry): T1 sequence (whole entry)

[3] = biological target: T1, Cell division protein FtsZ (Escherichia coli K-12); assay: Inhibition of Escherichia coli FtsZ assessed as reduction in polymerization
Bacillus subtilis = assay: Antimicrobial activity against Bacillus subtilis; format: functional
Staphylococcus aureus [4] = assay: Antimicrobial activity against Staphylococcus aureus; format: functional
[5] = tested on: Mycolicibacterium smegmatis; assay: Antimicrobial activity against Mycobacterium smegmatis; format: functional
[6] = biological target: T3, Cell division protein FtsZ (Bacillus subtilis) (UniProt A5Z1V5); assay: Inhibition of Bacillus subtilis FtsZ assessed as reduction in GTPase activity by malachite green assay
T3 sequence (whole entry): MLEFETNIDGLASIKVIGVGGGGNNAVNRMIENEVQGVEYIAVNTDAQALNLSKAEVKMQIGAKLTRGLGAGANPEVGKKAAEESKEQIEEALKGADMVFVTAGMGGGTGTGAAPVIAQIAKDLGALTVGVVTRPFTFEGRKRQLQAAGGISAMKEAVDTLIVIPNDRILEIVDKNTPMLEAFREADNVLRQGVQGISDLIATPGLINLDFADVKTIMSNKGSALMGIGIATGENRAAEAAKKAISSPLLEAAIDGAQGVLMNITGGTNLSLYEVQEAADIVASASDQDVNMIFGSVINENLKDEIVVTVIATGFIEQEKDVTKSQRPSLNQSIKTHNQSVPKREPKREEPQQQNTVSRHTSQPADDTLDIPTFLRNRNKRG

Staphylococcus aureus [7] = assay: Antimicrobial activity against methicillin resistant Staphylococcus aureus; format: functional
[8] = biological target: T4, Cell division protein FtsZ (Mycobacterium tuberculosis) (UniProt P9WN95); assay: Inhibition of Mycobacterium tuberculosis FtsZ assessed as reduction in GTPase activity by coupled enzyme assay
T4 sequence (whole entry): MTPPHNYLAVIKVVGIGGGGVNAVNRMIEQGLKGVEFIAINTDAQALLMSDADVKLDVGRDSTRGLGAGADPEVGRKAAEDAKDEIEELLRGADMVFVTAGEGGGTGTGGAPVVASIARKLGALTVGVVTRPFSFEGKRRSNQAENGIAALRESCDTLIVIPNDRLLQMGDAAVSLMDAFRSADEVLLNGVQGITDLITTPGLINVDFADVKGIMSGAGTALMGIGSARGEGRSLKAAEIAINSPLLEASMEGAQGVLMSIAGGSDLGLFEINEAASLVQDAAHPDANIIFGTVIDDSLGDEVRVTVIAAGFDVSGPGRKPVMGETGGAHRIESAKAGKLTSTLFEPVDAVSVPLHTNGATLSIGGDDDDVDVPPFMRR

[9] = biological target: T4, Cell division protein FtsZ (Mycobacterium tuberculosis); assay: Inhibition of Mycobacterium tuberculosis FtsZ assessed as reduction in GTPase activity by malachite green assay
[10] = biological target: T1, Cell division protein FtsZ (Escherichia coli K-12); assay: Inhibition of Escherichia coli FtsZ assessed as reduction in GTPase activity by coupled enzyme assay
[11] = biological target: T5, Cell division protein FtsZ (Staphylococcus aureus) (UniProt P0A031); assay: Activation of Staphylococcus aureus FtsZ assessed as increase in GTPase activity by malachite green assay
T5 sequence (whole entry): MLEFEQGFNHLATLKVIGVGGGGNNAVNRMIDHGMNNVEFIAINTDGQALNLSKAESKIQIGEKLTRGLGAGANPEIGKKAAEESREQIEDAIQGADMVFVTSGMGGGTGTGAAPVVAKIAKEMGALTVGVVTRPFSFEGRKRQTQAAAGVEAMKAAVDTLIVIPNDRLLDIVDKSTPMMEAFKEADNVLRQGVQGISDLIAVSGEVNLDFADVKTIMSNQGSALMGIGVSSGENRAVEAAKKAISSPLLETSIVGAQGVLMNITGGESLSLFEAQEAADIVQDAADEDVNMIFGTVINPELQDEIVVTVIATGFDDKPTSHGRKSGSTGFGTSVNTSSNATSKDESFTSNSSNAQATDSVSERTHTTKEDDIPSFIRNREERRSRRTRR

[12] = Inhibition of ZipA-FtsZ protein-protein interaction (unknown origin) assessed as reduction in binding of fluorescein-labeled analogue of FtsZ C-terminal residues (367 to 383 residues) to C-terminal domain of ZipA (185 to 328 residues) by fluorescence polarization assay
Enterococcus faecalis = assay: Antimicrobial activity against Enterococcus faecalis; format: functional
[13] = biological target: T5, Cell division protein FtsZ (Staphylococcus aureus); assay: Inhibition of Staphylococcus aureus FtsZ assessed as reduction in GTPase activity by coupled enzyme assay
[14] = biological target: T1, Cell division protein FtsZ (Escherichia coli K-12)
Description: Binding affinity to Escherichia coli FtsZ

`COc1ccc2cc3[n+](cc2c1OC)CCc1cc2c(cc1-3)OCO2.[Cl-]` [BERBERINE CHLORIDE] showed an INH (Escherichia coli) of over 400 µM, an INH [1] of 16 µM and a Kd [2] of 0.023 µM. The IC50 [3] was 10 µM, the MIC (Bacillus subtilis) was 100 µg/mL and the MIC (Staphylococcus aureus [4]) was 32 to 128 µg/mL.
Compound `CC(=O)O[C@@]12CO[C@@H]1C[C@H](O)[C@@]1(C)C(=O)[C@H](O)C3=C(C)[C@@H](OC(=O)/C=C/c4ccc5ccccc5c4)C[C@@](O)([C@@H](OC(=O)c4ccccc4)[C@H]21)C3(C)C` has an INH [5] of 60 µM, an INH [6] of 35 µM and an INH (Bacillus subtilis) of 38 µM.
With `Oc1cc(O)c2c(c1)C/C(Cl)=C\Cc1cc(c(Cl)cc1O)Oc1c(O)cc(cc1O)C/C(Cl)=C\Cc1cc(c(Cl)cc1O)O2` the INH [1] was 9.88 µM, the INH (Staphylococcus aureus [7]) was 1.5 µg/mL and the MIC (Staphylococcus aureus [4]) was 1.8 µg/mL (≈ 2.65 µM).
For `CCN(CC)CCNc1nc(/C=C/c2ccc(Cl)cc2)nc2cc3ccccc3cc12`, the MIC (Escherichia coli) was over 34 µg/mL, the INH [8] was 50 µM and the INH (Staphylococcus aureus [7]) was 4.31 µg/mL. For the same compound, the INH [9] was 50 µM, the IC50 [3] was 15 µM and the MIC (Bacillus subtilis) was 1.08 µg/mL (≈ 2.51 µM). It also gave an IC50 [10] of 15 µM.
`NC(=O)c1c(F)ccc(OCc2nc3cc(Cl)cnc3s2)c1F` showed an MIC (Staphylococcus aureus [4]) of 1 µg/mL (≈ 2.81 µM) and an Activity [11] of 0.1 µM.
For `O=C(O)c1ccc(-c2cccc(-c3c(-c4ccccc4)[nH]c4ccccc34)c2)cc1`, the IC50 [12] was 192 µM, the MIC (Bacillus subtilis) was 4 µg/mL (≈ 10.3 µM) and the MIC (Enterococcus faecalis) was 8 to 16 µg/mL. The MIC (Staphylococcus aureus [4]) was 4 to 8 µg/mL.
`CCC(CC)c1cc([C@H]2CN3CC[C@H]2C[C@@H]3CN)nc(-c2ccncc2)n1` gave an MIC (Escherichia coli) of 13.1 µg/mL (≈ 35.8 µM), an INH [13] of 37.5 µM and an MIC (Staphylococcus aureus [4]) of 6.53 µg/mL (≈ 17.9 µM).
In the case of `O=C/C=C/c1ccccc1` [CINNAMALDEHYDE], the INH (Escherichia coli) is reported as 1000 mg/L, the INH [1] is reported as 5.81 µM and the Ka [14] is reported as 1 µM. For the same compound, the INH (Bacillus subtilis) was 500 mg/L and the INH (Staphylococcus aureus [4]) was 250 mg/L.

Reference: ChEMBL document CHEMBL4428024, “Targeting the Bacterial Division Protein FtsZ” (J Med Chem, 2016)
